Experimental data from US6740679B1, “Nutritional supplement or pharmaceutical preparation comprising triglycerides with seven-carbon fatty acid” (Baylor University Medical Center, priority 1999, dated 2004).
“Also recorded” adds a separate entry of the source.

Legend:
[1] = system: long-chain L-3-hydroxy-acyl-CoA dehydrogenase (LCHAD) deficient fibroblasts; test: Tandem mass spectrometry assay of labeled fatty acid oxidation; format: cell-based, human
Experimental: (§1) Fibroblasts taken from the deceased sibling and amniocytes taken from the fetus were both evaluated for fatty acid metabolism of n-heptanoic acid (C7) using a tandem mass spectrometry assay previously reported. (Yang, et al. 1998. “Identification of four novel mutations in patients with carnitine palmitoyltransferase II (CPT II) deficiency,” Mol Genet Metab 64:229-236). […] Each cell line was incubated separately with 7-^2H3-heptanoate (D3-C7), 8-^2H3-octanoate (D3-C8), 9-^2H3-nonanoate (D3-C9), and 16-^2H3-palmitate (D3-C16).
(§2) The normal cell line and eleven abnormal cell lines were analyzed in groups of three. For quantitative purposes, labeled internal standards were included in each analysis and are designated as “IS” on the first profile in each group. The mass numbers for these standards are: m/z420 (^2H6-palmitate-C16), m/z308 (^2H6-octanoate-C8), m/z269 (^2H9-isovaleric-C5) , and m/z237 (^2H5-propionate-C3), wherein m/z is the mass:charge ratio.
(§3) This relative ammount of m/z235 (^2H3-propionate-C3) is compared to the level of the internal standards at m/z269 (^2H9-isovaleric-C5) and m/z237 (^2H5-propionate-C3).

[2] = system: electron transfer flavoprotein QO dehydrogenase-mild (ETF-DH mild) deficient fibroblasts; test: as above; format: cell-based, human
Experimental: as §1, §2, §3

[3] = system: VLCAD-C (cardiac form of very-long-chain acyl-CoA dehydrogenase) deficient fibroblasts; test: as above; format: cell-based, human
Experimental: as §1, §2, §3

[4] = system: carnitine palmitoyltransferase II (CPT II) deficient fibroblasts; test: as above; format: cell-based, human; conditions: for accumulation of labeled acylcarnitine of the precursor: m/z417 for D3-C16, m/z319 for D3-C9
Experimental: as §1, §2, §3

[5] = system: electron transfer flavoprotein QO dehydrogenase-severe (ETF-DH severe) deficient fibroblasts; test: as above; format: cell-based, human
Experimental: as §1, §2, §3

[6] = system: VLCAD-H (hypoglycemic form of very-long-chain acyl-CoA dehydrogenase) deficient fibroblasts; test: as above; format: cell-based, human
Experimental: as §1, §2, §3

[7] = system: mitochondrial trifunctional protein (TRIFUNCTIONAL) deficient fibroblasts; test: as above; format: cell-based, human
Experimental: as §1, §2, §3

[8] = system: medium-chain acyl-CoA dehydrogenase (MCAD) deficient fibroblasts; test: as above; format: cell-based, human; conditions: for accumulation of labeled acylcarnitine: C8 m/z305.3 from D3-C16, m/z305 for D3-C8, m/z291 heptanoylcarnitine for D3-C7
Experimental: as §1, §2, §3

[9] = system: carnitine palmitoyltransferase I (CPT I) deficient fibroblasts; test: as above; format: cell-based, human
Experimental: as §1, §2, §3

[10] = system: short-chain acyl-CoA dehydrogenase (SCAD) deficient fibroblasts; test: as above; format: cell-based, human
Experimental: as §1, §2, §3

[11] = system: fibroblasts with severe carnitine/acylcarnitine translocase deficiency (TRANSLOCASE); test: Tandem mass spectrometry assay of labeled fatty acid oxidation in cultured cells; format: cell-based, human; conditions: translocase-deficient fibroblasts; for accumulation of labeled acylcarnitine of the precursor: m/z417 for D3-C16, m/z305 for D3-C8, m/z319 for D3-C9
Experimental: as §1, §2, §3

normal fibroblasts = test: Tandem mass spectrometry assay of labeled fatty acid oxidation; format: cell-based, human
Source text: Fibroblasts taken from the deceased sibling and amniocytes taken from the fetus were both evaluated for fatty acid metabolism of n-heptanoic acid (C7) using a tandem mass spectrometry assay previously reported. (Yang, et al. 1998. “Identification of four novel mutations in patients with carnitine palmitoyltransferase II (CPT II) deficiency,” Mol Genet Metab 64:229-236). The mass spectrometry results are presented for palmitate in FIG. 3A and triheptanoin in FIG. 3B for the fibroblasts taken from the deceased sibling, and for palmitate in FIG. 4A and triheptanoin in FIG. 4B for the amniocytes taken from the fetus. […]
The normal cell line and eleven abnormal cell lines were analyzed in groups of three. For quantitative purposes, labeled internal standards were included in each analysis and are designated as “IS” on the first profile in each group. […]

[12] = system: amniocytes from a fetus with severe translocase deficiency; test: Tandem mass spectrometry assay of fatty acid oxidation in amniocytes; format: cell-based, human; conditions: translocase-deficient amniocytes
Source text: Because a sibling had died at the age of four days from severe translocase deficiency, amniocytes obtained from a fetus were examined for competency in fatty acid metabolism. […] Fibroblasts taken from the deceased sibling and amniocytes taken from the fetus were both evaluated for fatty acid metabolism of n-heptanoic acid (C7) using a tandem mass spectrometry assay previously reported. (Yang, et al. 1998. “Identification of four novel mutations in patients with carnitine palmitoyltransferase II (CPT II) deficiency,” Mol Genet Metab 64:229-236). […]

fasting rats = conditions: rats fed the triglyceride; Anderson et al. 1975; cited from earlier work

SMILES: [2H]C([2H])([2H])CCCCCC(=O)O [D3-C7, 7-^2H3-heptanoate]
- relative amount of 2H3-propionate-C3 (m/z235) produced ([1]; compared to normal cells): either comparable to or in excess of the amount seen in normal cells
- oxidation of the fatty acid (labeled acylcarnitine profile) [2]: no oxidation of labeled 7-^2H3-heptanoate was observed
- relative amount of 2H3-propionate-C3 (m/z235) produced ([3]; compared to normal cells): either comparable to or in excess of the amount seen in normal cells
- relative amount of 2H3-propionate-C3 (m/z235) produced ([4]; compared to normal cells): either comparable to or in excess of the amount seen in normal cells
- oxidation of the fatty acid (labeled acylcarnitine profile) [5]: no oxidation of labeled 7-^2H3-heptanoate was observed
- relative amount of 2H3-propionate-C3 (m/z235) produced ([6]; compared to normal cells): either comparable to or in excess of the amount seen in normal cells
- relative amount of 2H3-propionate-C3 (m/z235) produced ([7]; compared to normal cells): either comparable to or in excess of the amount seen in normal cells
- accumulation of labeled acylcarnitine [8]: markedly increased
- relative amount of 2H3-propionate-C3 (m/z235) produced ([9]; compared to normal cells): either comparable to or in excess of the amount seen in normal cells
- relative amount of 2H3-propionate-C3 (m/z235) produced ([10]; compared to normal cells): either comparable to or in excess of the amount seen in normal cells
- relative amount of 2H3-propionate-C3 (m/z235) produced ([11]; compared to normal cells): either comparable to or in excess of the amount seen in normal cells

SMILES: [2H]C([2H])([2H])CCCCCCC(=O)O [D3-C8, 8-^2H3-octanoate]
- accumulation of labeled acylcarnitine [8]: relative accumulation of m/z 305
- accumulation of labeled acylcarnitine of the precursor [11]: relative accumulation of m/z 305

SMILES: [2H]C([2H])([2H])CCCCCCCC(=O)O [D3-C9, 9-^2H3-nonanoate]
- accumulation of labeled acylcarnitine of the precursor ([1]; m/z319 for D3-C9): an increase was observed at m/z319
- accumulation of labeled acylcarnitine of the precursor [4]: an increase was observed at m/z319
- accumulation of labeled acylcarnitine of the precursor [11]: an increase was observed at m/z319

SMILES: [2H]C([2H])([2H])CCCCCCCCCCCCCCC(=O)O [D3-C16, 16-^2H3-palmitate]
- profile of labeled acylcarnitines [1]: abnormal profiles of labeled acylcarnitines
- oxidation of the fatty acid (labeled acylcarnitine profile) [2]: abnormal profiles of labeled acylcarnitines
- profile of labeled acylcarnitines [3]: abnormal profiles of labeled acylcarnitines
- oxidation of the fatty acid (labeled acylcarnitine profile) [4]: no oxidation occurs
- accumulation of labeled acylcarnitine of the precursor [4]: large quantities of labeled palmitoylcarnitine
- oxidation of the fatty acid (labeled acylcarnitine profile) [5]: abnormal profiles of labeled acylcarnitines
- profile of labeled acylcarnitines [6]: abnormal profiles of labeled acylcarnitines
- profile of labeled acylcarnitines [7]: abnormal profiles of labeled acylcarnitines
- oxidation of the fatty acid (labeled acylcarnitine profile) [8]: oxidation clearly proceed down to the level of C8
- accumulation of labeled acylcarnitine [8]: marked accumulation
- amount of labeled palmitoylcarnitine (m/z417) [9]: minimal amount
- oxidation of the fatty acid (labeled acylcarnitine profile) [9]: virtually no oxidation occurs
- oxidation of the fatty acid (labeled acylcarnitine profile) [10]: oxidation stops at m/z249
- oxidation of the fatty acid (labeled acylcarnitine profile) [11]: no oxidation occurs
- accumulation of labeled acylcarnitine of the precursor [11]: large quantities of labeled palmitoylcarnitine
- profile of labeled acylcarnitine intermediates (normal fibroblasts): from C16 down to and including C4

SMILES: CCCCCCC(=O)O [n-heptanoic acid]
- oxidation of the fatty acid [12]: readily oxidized to propionyl-CoA
- oxidation of the fatty acid (labeled acylcarnitine profile) [11]: successful oxidation; also recorded: readily oxidized to propionyl-CoA

SMILES: CCCCCCCCCCC(=O)OCC(COC(=O)CCCCCCCCCC)OC(=O)CCCCCCCCCC [triundecanoin]
- blood glucose levels during prolonged fasting (fasting rats): maintain nonfasting blood glucose levels during prolonged fasting
